Here are results for 34 molecules from patent publication US20250171438A1 (Agios Pharmaceuticals, Inc., priority 2022, published 2025).

As usually defined, the AC50 is the concentration at which the activity in the assay is half-maximal.

The assay has as its target T1, human PAH with the R408W mutation (Homo sapiens, UniProt P00439, R408W).
T1 construct: expressed in transfected cells
T1 sequence (P00439 1-452 R408W): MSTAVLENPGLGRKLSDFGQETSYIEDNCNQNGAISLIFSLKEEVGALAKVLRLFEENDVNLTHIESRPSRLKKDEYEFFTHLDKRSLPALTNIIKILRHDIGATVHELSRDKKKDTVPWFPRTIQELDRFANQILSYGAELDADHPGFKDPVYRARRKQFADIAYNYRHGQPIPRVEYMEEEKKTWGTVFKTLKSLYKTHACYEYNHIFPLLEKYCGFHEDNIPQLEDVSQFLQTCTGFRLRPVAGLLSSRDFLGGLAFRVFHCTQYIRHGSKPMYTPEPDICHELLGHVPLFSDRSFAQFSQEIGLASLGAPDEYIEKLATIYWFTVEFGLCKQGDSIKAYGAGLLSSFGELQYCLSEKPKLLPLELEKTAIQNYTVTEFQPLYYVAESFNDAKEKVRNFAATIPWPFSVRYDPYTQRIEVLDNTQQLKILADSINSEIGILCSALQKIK
The experiment in a line: Cell Based Phenylalanine Flux Assay. The settings on record: A375 cells expressing human R408W PAH; 24 hrs compound incubation; 13C-Tyrosine by LC-MS; average where tested multiple times; read-out: AC50.

Where only a bound is given, the exact number is not on record here.

`O=C(CCC1CC1)N1CCc2[nH]cnc2[C@H]1c1nc2ccc(Br)cc2s1` [Example 1145, (S)-1-(4-(6-bromobenzo[d]thiazol-2-yl)-6,7-dihydro-1H-imidazo[4,5-c]pyridin-5(4H)-yl)-3-cyclopropylpropan-1-one]: the AC50 is less than 500 nM. Turning to `O=C(CCC1CC1)N1CCc2[nH]cnc2[C@@H]1c1nc2ccc(Br)cc2s1` [Example 1146, (R)-1-(4-(6-bromobenzo[d]thiazol-2-yl)-6,7-dihydro-1H-imidazo[4,5-c]pyridin-5(4H)-yl)-3-cyclopropylpropan-1-one], the AC50 lay within 500 to 1000 nM. Then `O=C(CC1CC1)N1CCc2[nH]cnc2[C@@H]1c1nc2ccc(Br)cc2s1` [Example 1147, (R)-1-(4-(6-bromobenzo[d]thiazol-2-yl)-6,7-dihydro-1H-imidazo[4,5-c]pyridin-5(4H)-yl)-2-cyclopropylethanone], with 500 to 1000 nM; and `O=C(CC1CC1)N1CCc2[nH]cnc2[C@H]1c1nc2ccc(Br)cc2s1` [Example 1148, (S)-1-(4-(6-bromobenzo[d]thiazol-2-yl)-6,7-dihydro-1H-imidazo[4,5-c]pyridin-5(4H)-yl)-2-cyclopropylethanone], with less than 500 nM.

In the case of `O=C(c1cnn2c(Br)cccc12)N1CCc2[nH]cnc2[C@H]1c1nc2ccc(F)cc2s1` [Example 1149], the AC50 is less than 500 nM. As for `O=C(c1cnn2c(Br)cccc12)N1CCc2[nH]cnc2[C@@H]1c1nc2ccc(F)cc2s1` [Example 1150, (R)-(7-bromopyrazolo[1,5-a]pyridin-3-yl)(4-(6-fluorobenzo[d]thiazol-2-yl)-6,7-dihydro-1H-imidazo[4,5-c]pyridin-5(4H)-yl)methanone], the half-maximal activity concentration (AC50) was greater than 5000 nM. The result for `O=C(c1cnn2ccc(Cl)cc12)N1CCc2[nH]cnc2[C@H]1c1nc2ccc(F)cc2s1` [Example 1151] reads less than 500 nM; that for `O=C(c1cnn2ccc(Cl)cc12)N1CCc2[nH]cnc2[C@@H]1c1nc2ccc(F)cc2s1` [Example 1152, (R)-(5-chloropyrazolo[1,5-a]pyridin-3-yl)(4-(6-fluorobenzo[d]thiazol-2-yl)-6,7-dihydro-1H-imidazo[4,5-c]pyridin-5(4H)-yl)methanone], greater than 5000 nM.

With `O=C(C1CCC1)N1CCc2[nH]cnc2[C@H]1c1nc2ccccc2s1` [Example 1153], the AC50 is less than 500 nM.

For `O=C(C1CCC1)N1CCc2[nH]cnc2[C@@H]1c1nc2ccccc2s1` [Example 1154, (R)-(4-(benzo[d]thiazol-2-yl)-6,7-dihydro-1H-imidazo[4,5-c]pyridin-5(4H)-yl)(cyclobutyl)methanone], the AC50 is greater than 5000 nM. Then `N#Cc1ccn2ncc(C(=O)N3CCc4[nH]cnc4[C@H]3c3nc4ccc(F)cc4s3)c2c1` [Example 1155, (S)-3-(4-(6-fluorobenzo[d]thiazol-2-yl)-4,5,6,7-tetrahydro-1H-imidazo[4,5-c]pyridine-5-carbonyl)pyrazolo[1,5-a]pyridine-5-carbonitrile], with 500 to 1000 nM; and `N#Cc1ccn2ncc(C(=O)N3CCc4[nH]cnc4[C@@H]3c3nc4ccc(F)cc4s3)c2c1` [Example 1156, (R)-3-(4-(6-fluorobenzo[d]thiazol-2-yl)-4,5,6,7-tetrahydro-1H-imidazo[4,5-c]pyridine-5-carbonyl)pyrazolo[1,5-a]pyridine-5-carbonitrile], with greater than 5000 nM. The result for `O=C(c1ncn2ccccc12)N1CCc2[nH]cnc2[C@@H]1c1nc2cc(F)ccc2s1` [Example 1158, (R)-(4-(5-fluorobenzo[d]thiazol-2-yl)-6,7-dihydro-1H-imidazo[4,5-c]pyridin-5(4H)-yl)(imidazo[1,5-a]pyridin-1-yl)methanone] reads greater than 5000 nM; that for `N#Cc1ccn2ncc(C(=O)N3CCc4[nH]cnc4[C@@H]3c3nc4cc(F)ccc4s3)c2c1` [Example 1159, (R)-3-(4-(5-fluorobenzo[d]thiazol-2-yl)-4,5,6,7-tetrahydro-1H-imidazo[4,5-c]pyridine-5-carbonyl)pyrazolo[1,5-a]pyridine-5-carbonitrile], greater than 5000 nM; that for `N#Cc1ccn2ncc(C(=O)N3CCc4[nH]cnc4[C@H]3c3nc4cc(F)ccc4s3)c2c1` [Example 1160, (S)-3-(4-(5-fluorobenzo[d]thiazol-2-yl)-4,5,6,7-tetrahydro-1H-imidazo[4,5-c]pyridine-5-carbonyl)pyrazolo[1,5-a]pyridine-5-carbonitrile], 500 to 1000 nM. For `Cc1ncoc1C(=O)N1CCc2[nH]cnc2[C@H]1c1nc2ccccc2s1` [Example 1161], the AC50 was less than 500 nM.

Take `Cc1ncoc1C(=O)N1CCc2[nH]cnc2[C@@H]1c1nc2ccccc2s1` [Example 1162, (R)-(4-(benzo[d]thiazol-2-yl)-6,7-dihydro-1H-imidazo[4,5-c]pyridin-5(4H)-yl)(4-methyloxazol-5-yl)methanone]: the AC50 was 1000 to 5000 nM.

Take `Cc1nc(C)c(C(=O)N2CCc3[nH]cnc3[C@H]2c2nc3ccccc3s2)o1` [Example 1163]: the AC50 was less than 500 nM.

Turning to `Cc1nc(C)c(C(=O)N2CCc3[nH]cnc3[C@@H]2c2nc3ccccc3s2)o1` [Example 1164, (R)-(4-(benzo[d]thiazol-2-yl)-6,7-dihydro-1H-imidazo[4,5-c]pyridin-5(4H)-yl)(2,4-dimethyloxazol-5-yl)methanone], the AC50 was greater than 5000 nM. As to `Cc1nn2ccccc2c1C(=O)N1CCc2[nH]cnc2[C@H]1c1nc2ccccc2s1` [Example 1165], the AC50 is less than 500 nM.

In the case of `Cc1nn2ccccc2c1C(=O)N1CCc2[nH]cnc2[C@@H]1c1nc2ccccc2s1` [Example 1166, (R)-(4-(benzo[d]thiazol-2-yl)-6,7-dihydro-1H-imidazo[4,5-c]pyridin-5(4H)-yl)(2-methylpyrazolo[1,5-a]pyridin-3-yl)methanone], the AC50 fell in the range of 500 to 1000 nM.

On to `O=C(c1cnn2ccc(Cl)cc12)N1CCc2[nH]cnc2[C@H]1c1nc2cc(F)ccc2s1` [Example 1167], for which the AC50 was 500 to 1000 nM. As for `O=C(c1cnn2ccc(Cl)cc12)N1CCc2[nH]cnc2[C@@H]1c1nc2cc(F)ccc2s1` [Example 1168, (R)-(5-chloropyrazolo[1,5-a]pyridin-3-yl)(4-(5-fluorobenzo[d]thiazol-2-yl)-6,7-dihydro-1H-imidazo[4,5-c]pyridin-5(4H)-yl)methanone], the AC50 lay within 1000 to 5000 nM. On to `O=C(c1cnn2ccc(F)cc12)N1CCc2[nH]cnc2[C@@H]1c1nc2c(F)cccc2s1` [Example 1169, (R)-(4-(4-fluorobenzo[d]thiazol-2-yl)-6,7-dihydro-1H-imidazo[4,5-c]pyridin-5(4H)-yl)(5-fluoropyrazolo[1,5-a]pyridin-3-yl)methanone], for which the AC50 was in the range of 1000 to 5000 nM. The result for `O=C(c1cnn2ccc(F)cc12)N1CCc2[nH]cnc2[C@H]1c1nc2c(F)cccc2s1` [Example 1170, (S)-(4-(4-fluorobenzo[d]thiazol-2-yl)-6,7-dihydro-1H-imidazo[4,5-c]pyridin-5(4H)-yl)(5-fluoropyrazolo[1,5-a]pyridin-3-yl)methanone] reads 500 to 1000 nM; that for `O=C(c1cnn2ccc(Br)cc12)N1CCc2[nH]cnc2[C@H]1c1nc2c(F)cccc2s1` [Example 1171], less than 500 nM. Then `O=C(c1cnn2ccc(Br)cc12)N1CCc2[nH]cnc2[C@@H]1c1nc2c(F)cccc2s1` [Example 1172, (R)-(5-bromopyrazolo[1,5-a]pyridin-3-yl)(4-(4-fluorobenzo[d]thiazol-2-yl)-6,7-dihydro-1H-imidazo[4,5-c]pyridin-5(4H)-yl)methanone], with 500 to 1000 nM; and `Cc1ccc2c(C(=O)N3CCc4[nH]cnc4[C@H]3c3nc4c(F)cccc4s3)cnn2c1` [Example 1173, (S)-(4-(4-fluorobenzo[d]thiazol-2-yl)-6,7-dihydro-1H-imidazo[4,5-c]pyridin-5(4H)-yl)(6-methylpyrazolo[1,5-a]pyridin-3-yl)methanone], with 500 to 1000 nM.

As to `Cc1ccc2c(C(=O)N3CCc4[nH]cnc4[C@@H]3c3nc4c(F)cccc4s3)cnn2c1` [Example 1174, (R)-(4-(4-fluorobenzo[d]thiazol-2-yl)-6,7-dihydro-1H-imidazo[4,5-c]pyridin-5(4H)-yl)(6-methylpyrazolo[1,5-a]pyridin-3-yl)methanone], the AC50 fell in the range of 1000 to 5000 nM. Then `O=C(Cc1nccs1)N1CCc2[nH]cnc2[C@@H]1c1nc2cccc(Br)c2s1` [Example 1175, (R)-1-(4-(7-bromobenzo[d]thiazol-2-yl)-6,7-dihydro-1H-imidazo[4,5-c]pyridin-5(4H)-yl)-2-(thiazol-2-yl)ethanone], with 1000 to 5000 nM. `O=C(Cc1nccs1)N1CCc2[nH]cnc2[C@H]1c1nc2cccc(Br)c2s1` [Example 1176, (S)-1-(4-(7-bromobenzo[d]thiazol-2-yl)-6,7-dihydro-1H-imidazo[4,5-c]pyridin-5(4H)-yl)-2-(thiazol-2-yl)ethanone]: the AC50 is 500 to 1000 nM. Then `Cc1nc(C)c(C(=O)N2CCc3[nH]cnc3[C@H]2c2nc3ccccc3s2)s1` [Example 1177], with 500 to 1000 nM; and `Cc1nc(C)c(C(=O)N2CCc3[nH]cnc3[C@@H]2c2nc3ccccc3s2)s1` [Example 1178, (R)-(4-(benzo[d]thiazol-2-yl)-6,7-dihydro-1H-imidazo[4,5-c]pyridin-5(4H)-yl)(2,4-dimethylthiazol-5-yl)methanone], with greater than 5000 nM. Then `O=C(c1cnc(C2CC2)s1)N1CCc2[nH]cnc2[C@H]1c1nc2ccccc2s1` [Example 1179], with less than 500 nM.
